Assay results published in patent US5726156A, “Cytokine regulatory agents and methods of use in pathologies and conditions associated with altered cytokine levels” (Trega Biosciences, Inc., priority 1995, dated 1998).
Values joined by “and” are separate entries in the source; they are usually repeats but may differ in a detail not shown here. Equal values may be shown once. Square brackets hold non-standard residues; d marks the D form. Peptide text beside a SMILES is read from it.

Legend:
TNF-α [1] = test: Reduction of LPS-induced TNF levels in mice (IP dosing); format: in vivo; conditions: 150 μg/mouse IP, one min before LPS 5 mg/kg IP
Experimental: Balb/c female mice weighing approximately 20 g were placed into two groups, a control group and a treated group. Five mg/kg of LPS in 0.9% saline was administered by intraperitoneal (IP) injection into the control mice. Mice in the treated group were first injected IP with 30 μg EX-2 or 150 μg EX-3 in saline, then, one min after EX-2 or EX-3 was administered, the mice received LPS as described for the control group.
Blood samples were collected from the orbital sinus of treated and control mice at various times up to four hr after LPS was administered. The plasma was separated by centrifugation at 3000×g for 5 min, then diluted with four volumes of 1× phosphate buffer saline (pH 7.4) containing 1% bovine serum albumin. A 100 μl sample of serum was assayed by ELISA for TNF-α (Genzyme; Cambridge Mass.).
The mean (+/- SEM) TNF-α level in six mice from each group was determined and the percent reduction in TNF levels was calculated.

LPS-induced lethality [2] = test: LPS-induced lethality (IP dosing); format: in vivo, mice; conditions: 11 × 300 μg/mouse IP (3.3 mg), every 4 hr; 0.6 mg LPS
Experimental: These experiments were performed based on information reported by Rivier etal., Endocrinology 125:2800-2805 (1989), which is incorporated herein by reference. Adult female Balb/c mice were provided food and water ad libitum. Mice were injected IP every four hr for 40 hr with 30 to 300 μg EX-2, EX-3 or EX-4 in 0.2 ml saline (treated group) or with 0.2 ml saline, alone (control group) (10 mice per group). Immediately following the first injection, 0.6 mg LPS endotoxin in 0.2 ml saline was administered to each mouse. Following LPS injection, EX-2 or saline was administered to the treated mice or the control mice, respectively, every 4 hr for 36 hr.

[3] = test system: morphine-induced respiratory depression; test: Morphine-induced respiratory depression; format: in vivo, rabbits; conditions: 10 + 20 + 20 μg/kg/rabbit iv; end of experiment (80 min)
Experimental: Male Shelton rabbits (3-4 kg) were restrained and fitted around the thorax, just behind the front limbs, with a respiration transducer (Model F-RCT; Grass Instruments; Quincy Ma). The transducer was connected to a grass polygraph via an EKG cable. An intravenous line was established for drug administration by cannulating the marginal ear vein using a 25 G butterfly needle.
Rabbit breathing was allowed to stabilize, then morphine sulfate (2 mg/kg in 0.5 ml saline) was administered by intravenous (iv) injection and respiratory rate and depth were monitored for 10 min. A second dose of morphine was administered, then, after 10 min, EX-2 or EX-3 (10 μg/kg in 0.5 ml saline) was administered, iv, and rabbits were monitored for 20 min. Two additional doses of EX-2 or EX-3 (20 μg/kg in 1.0 ml saline) were administered at 20 min intervals, i.e., 40 min and 60 min after the first morphine injection.
Results were calculated as the percent change from baseline values and are expressed as the difference of the mean value of the treated group minus the mean value of the control group at the end of the experiment (80 min).

LPS-induced fever = test: LPS-induced temperature increase (fever); format: in vivo, rats; conditions: 150 μg/kg IP; 6 hr following LPS injection
Experimental: Male Wistar rats (45-75 days old) were placed in a temperature controlled room held at 26° C., which is thermoneutral for the normal body temperature of rats, and were maintained in the room with free access to food and water for 24 hr prior to testing. On the morning of the study, rats were marked for identification and weighed. The temperature of each rat was determined by placing the animal in a regulatory cage designed to minimize stress and inserting a temperature probe (YSI probe #402) 3-5 cm into the animal's rectum. The temperature was recorded 15 sec after the reading stabilized. Measurements were repeated 1 hr later to establish a baseline temperature for each rat.
After the baseline temperatures were established, rats were injected IP with saline, IL-1β or LPS endotoxin. Rats then were injected IP with either saline (control) or various concentrations of EX-2, EX-3, or EX-4 (treated). The temperature of the rats was measured every hr for 6 hr and the inhibition by EX-2, EX-3, or EX-4 of the rise in temperature due to IL-1β or LPS was determined.
In addition, treatment with 50 or 150 μg/kg EX-2 inhibited LPS-induced fever by 45% or 52%, respectively, when measured 6 hr following LPS injection. Furthermore, treatment with 150 μg/kg EX-3 or EX-4 inhibited LPS-induced fever by 57% and 52%, respectively (Table II).

[4] = test system: Carageenan-induced paw swelling; test: Carageenan-induced paw swelling; format: in vivo, mice; conditions: 1 μg/mouse; 2 hr time point
Experimental: Carageenan-induced paw swelling was induced using a modification of the methods of Hiltz and Lipton, Peptides 11:979-982 (1990); Vinegar et al., Fed. Proc. 46:118-126 (1987); and Vinegar et al., J. Pharmacol. Expt. Therap. 166:96-103 (1969), each of which is incorporated herein by reference. Briefly, adult female Balb/c mice were anesthetized by IP injection of 7 mg/kg ketoamine and 0.6 mg/kg rompun. Foot pad thickness was measured using a spring loaded micrometer (Swiss Precision Instruments). Foot pad thickness was expressed in units of 1/100 inch. After baseline measurements were obtained, mice were injected into a hind foot pad with either 0.2 ml physiologic saline (control) or varying doses of EX-2 or EX-3 in 0.2 ml saline (treated). The first injection was followed immediately by injection of 0.02 ml of 0.15% K-carageenan (Sigma Chemical Co.; St. Louis, Mo.).
Hind foot pad thickness was measured hourly for six hr, the change in thickness was determined and the percent reduction in swelling due to treatment with EX-2 was calculated.

TNF-α [5] = test: LPS-induced TNF-α levels, oral (gavage) dosing; format: in vivo, mice; conditions: one min before 0.1 mg LPS IP
Experimental: The ability of orally administered cytokine regulatory agents to reduce LPS-induced TNF-α levels also was examined. Balb/c female mice (20 g) were administered 150 μg or 300 μg EX-2, EX-3, EX-5 or EX-6 in 100 μl saline by gavage. Control mice received 100 μl saline, alone. One min later, 0.1 mg LPS was administered by IP injection. Samples were collected and TNF-α levels were determined as described in Example III, above.
The mean TNF-α levels in the mice from each group (n=9-20) was determined and the percent reduction in TNF-α levels was calculated.

[6] = test system: arachidonic acid-induced ear swelling; test: Arachidonic acid-induced ear swelling; format: in vivo, mice; conditions: 100 μg/mouse IP 30 min prior to AA; 60 min after AA
Experimental: Experiments were performed using female Balb/c mice weighing 18-23 grams. Saline or 100 μg EX-2 or EX-3 was administered IP, 30 min prior to topical application of arachidonic acid (AA). A 10 μl pipet was used to apply 10 μl AA solution (100 mg/ml ethanol; Calbiochem-Novabiochem; San Diego Calif.) to the inner and outer surfaces of the right ear of each mouse. Ten μl ethanol, alone, was applied to the inner and outer surface of the left ear of each mouse. Ear thickness was measured with a hand-held spring loaded caliper immediately before and 60 min after AA application. Increase in ear thickness was calculated by subtracting the change observed in the control ear from the change observed in AA-treated ear. The value for each group (saline and control) is the average of the swelling observed in the individual mice in each group. The percent reduction of swelling is based on the swelling observed in the saline control group.

LPS-induced lethality [7] = test: LPS-induced lethality, oral (gavage) dosing; format: in vivo; conditions: control mice 0%
Experimental: The LPS-induced lethality studies were performed based on information reported by Rivier et al., supra, 1989. Adult female Balb/c mice were provided food and water ad libitum. Mice were administered 150 μg or 300 μg EX-2, EX-3, EX-5 or EX-6 in 100 μl saline by gavage every 4 hr for 40 hr (total doses of 1.65 mg and 3.3 mg, respectively). Control mice received 100 μl saline, alone. Immediately following the first dose of cytokine regulatory agent or saline, 0.6 mg LPS in 0.2 ml saline was administered by IP injection.

SMILES | Reduction in TNF levels (TNF-α [1]) | Inhibition of LPS-induced Lethality (increase in survival vs control) (LPS-induced lethality [2]) | Reduction in Morphine-induced Respiratory Depression [3] | Reduction in LPS-induced Fever (LPS-induced fever) | Reduction in Carageenan-induced Paw Swelling [4] | percent reduction in TNF-α levels, oral dosing (TNF-α [5]; 150 μg by gavage) | percent reduction in TNF-α levels, oral dosing (TNF-α [5]; 300 μg by gavage) | Reduction in arachidonic acid-induced Ear Swelling [6] | survival after LPS, oral dosing (LPS-induced lethality [7]; 3.3 mg total (300 μg by gavage every 4 hr for 40 hr)) | survival after LPS, oral dosing (LPS-induced lethality [7]; 1.65 mg total (150 μg by gavage every 4 hr for 40 hr))
CC(=O)N[C@H](C(=O)N[C@@H](CCC(N)=O)C(=O)N[C@@H](Cc1c[nH]cn1)C(=O)N[C@H](Cc1ccccc1)C(=O)N[C@@H](CCCNC(=N)N)C(=O)N[C@H](Cc1c[nH]c2ccccc12)C(=O)NCC(N)=O)C1CCCCC1 [EX-3, Ac-(cyclohexyl)Gly-Gln-His-(D) Phe-Arg- (D) Trp-Gly-NH2] | 56% | 86% | 65% | 57% | 49% | 49% | 40% | 62% | – | –
CC(=O)N[C@H](Cc1ccccc1)C(=O)N[C@@H](CCCNC(=N)N)C(=O)N[C@H](Cc1c[nH]c2ccccc12)C(N)=O [EX-4, Ac- (D) Phe-Arg-(D) Trp-NH2] | 53% | 75% | – | 52% | – | – | – | – | – | –
CC(=O)N[C@@H](Cc1c[nH]cn1)C(=O)N[C@H](Cc1ccccc1)C(=O)N[C@@H](CCCNC(=N)N)C(=O)N[C@H](Cc1c[nH]c2ccccc12)C(=O)NCC(N)=O [EX-5, Ac-His- (D) Phe-Arg- (D) Trp-Gly-NH2] (Ac-H[dF]R[dW]G-NH2) | – | – | – | – | – | – | 44% | – | 63% and 44% | –
CC(=O)N[C@@H](Cc1c[nH]cn1)C(=O)N[C@H](Cc1ccccc1)C(=O)N[C@@H](CCCNC(=N)N)C(=O)N[C@H](Cc1c[nH]c2ccccc12)C(N)=O [EX-6, Ac-His-(D)Phe-Arg-(D)TrP-NH2] | – | – | – | – | – | – | – | – | – | 68%
